The values that follow come from article PMC3501516, “Anti-Diabetic Efficacy and Impact on Amino Acid Metabolism of GRA1, a Novel Small-Molecule Glucagon Receptor Antagonist” (PLoS ONE, 2012).

One data set concerns humans. Details: method as in earlier work. The conditions noted are these: clinical studies in humans, MK-0893 combined with the DPP-4 inhibitor sitagliptin; cited from earlier work.
Details of data set [1]: method as in PMID 16731832. The conditions noted are these: cited from earlier work.
For the next data set, the system named is hGCGR HFD/STZ mice. Description: Antihyperglycemic efficacy in hGCGR HFD/STZ mice (acute, chronic, combination with des-fluoro-sitagliptin). The data set is classed as in vivo, hGCGR mouse. The conditions noted are these: GRA1 10 mg/kg, Des-F-sita 200 mg/kg. From the text: The present study made use of a line of hGCGR-expressing mouse (“hGCGR mouse”) generated previously by substituting the hGCGR gene for the mouse GCGR gene. These mice were crossed with C57BL/6J.ob/+ mice (Jackson Laboratories, Bar Harbor, ME) to obtain an hGCGR.ob/+ mouse line. The hGCGR.ob/+ mice were then intercrossed to obtain hGCGR.ob/ob, hGCGR.ob/+, and hGCGR.+/+ mice (with the hGCGR.ob/+ and hGCGR.+/+ mice serving as littermate controls). […] obese (DIO) hGCGR mice were generated by maintaining hGCGR mice on a high-fat diet (HFD) in which 45–60% of calories were in fat (Product S3282, Bio-Serv, Frenchtown, NJ). High-fat-diet-streptozotocin-treated (HFD/STZ) diabetic mice were generated in-house as previously described.
Acute glucose lowering was studied in non-fasted hGCGR.ob/ob mice and HFD/STZ mice administered single doses p.o. of 1, 3 and 10 mg/kg GRA1 in 10 mL/kg 0.5% aqueous methylcellulose. Animals were fasted during the interval between dosing and the final blood glucose measurement. Glucose was measured in blood from tail bleeds using a OneTouch glucometer. In the experiments with hGCGR HFD/STZ mice, treatment groups were matched with respect to body weight and blood glucose levels.
Animals were dosed chronically with GRA1 and the DPP-4 inhibitor des-fluoro-sitagliptin by administering these agents as food admixtures. The admixtures were prepared in-house and by Research Diets (New Brunswick, NJ), with drug concentrations adjusted weekly on the basis of average food consumption and animal weight to provide targeted daily doses. In the GRA1 experiments, the targeted doses were 3, 6, 10, and 30 mg/kg•day. In des-fluoro-sitagliptin experiments, the targeted dose was 200 mg/kg•day, a relatively high amount necessary because this compound has a half-life in rodents of 1–2 h.
Plasma glucagon and active GLP-1 were measured using commercial ELISA kits (Linco Research Immunoassay, St. Charles, MO). […] Plasma insulin was determined by ELISA with a commercial kit (ALPCO Diagnostics, Windham, NH). Plasma concentrations of glycated hemoglobin A1c (HbA1c) were measured using a Micromat II test kit from Bio-Rad Laboratories (Hercules, CA). Total cholesterol, low-density lipoprotein cholesterol (LDL-c) and non-LDL-c, and aspartate aminotransferase were measured using a Roche P Modular Clinical Chemistry analyzer (Indianapolis, IN).
Figure 5 GRA1 lowers glucose in hGCGR HFD/STZ mice and further enhances the efficacy of a DPP-4 inhibitor. (A) Mean (±SEM) blood glucose hGCGR HFD/STZ mice treated with a single dose of 1, 3, or 10 mg/kg GRA1. (B) Non-fasted blood glucose concentrations in hGCGR HFD/STZ mice treated for 6 weeks with 10 mg/kg·day GRA1, 200 mg/kg·day des-fluoro-sitagliptin (des-F-sita), or the two agents in combination. (Additional data from this study are in Table 4.) *p<0.05, **p<0.01, and ***p<0.001 versus HFD/STZ controls; ^#non-significant (p>0.05) versus non-STZ controls; n = 8–15 animals per group.

Marks after values point to notes of the source that are not given here.

Regarding `COc1ccc2cc(-c3cc(-c4cc(Cl)cc(Cl)c4)nn3[C@@H](C)c3ccc(C(=O)NCCC(=O)O)cc3)ccc2c1` [MK-0893, N-[(4-{(1S)-1-[3-(3,5-Dichlorophenyl)-5-(6-methoxynaphthalen-2-yl)-1H-pyrazol-1-yl]ethyl}phenyl)carbonyl]-beta-alanine], the “Glucose-lowering efficacy of combination with sitagliptin” value with humans is “did not result in significant additional glucose-lowering efficacy”.

With `N[C@@H](CC(=O)N1CCn2c(nnc2C(F)(F)F)C1)Cc1cc(F)ccc1F` [Des-F-sita, 7-[(3R)-3-amino-1-oxo-4-(2,5-difluorophenyl)butyl]-5,6,7,8-tetrahydro-3-(trifluoromethyl)-1,2,4-triazolo[4,3-α]pyrazine, reference compound], in data set [1], the Half-life in rodents is 1 to 2 h. Besides, the HbA1c with hGCGR HFD/STZ mice (5 weeks of treatment, control diet 6.1±0.4) worked out at 5.0±0.4%. Also, the “6-h fasting blood glucose” value with hGCGR HFD/STZ mice (5 weeks of treatment, control diet 323±33) was found to be 283 ± 34 mg/dL. Moreover, the “Liver Triglyceride” value with hGCGR HFD/STZ mice (6 weeks, necropsy tissue, control diet 143±10) is 94±15* µg/mg. Further, the Free fatty acid in the data set on hGCGR HFD/STZ mice (6 weeks, terminal plasma, control diet 1.4±0.2) turned out to be 1.1 ± 0.1 mM. The “Active GLP-1” value in the data set with hGCGR HFD/STZ mice (6 weeks, terminal plasma, control diet 2.5±0.1) was 2.9 ± 0.2 pM. The “Inactive GLP-1” value in the data set on hGCGR HFD/STZ mice (6 weeks, terminal plasma, control diet 8.1±1.1) is 3.2±0.2*** pM. Also, the Plasma glucagon in the data set on hGCGR HFD/STZ mice (6 weeks, terminal plasma, control diet 133±21) is 87 ± 4 pg/mL. For the same compound, the Triglyceride in the data set on hGCGR HFD/STZ mice (6 weeks, terminal plasma, control diet 184±26) turned out to be 161 ± 15 mg/dL.
